Drawing on paper PMC5353671, “A bacterial aromatic aldehyde dehydrogenase critical for the efficient catabolism of syringaldehyde” (Scientific Reports, 2017), this text covers specific activity for one molecule.

The target in one assay is T1, SLG_38120 (Sphingobium sp. SYK-6, UniProt G2IRC1).
T1 construct: gene feaB; coding region in pET21a(+), extract of E. coli BL21(DE3)
T1 sequence (G2IRC1 1-493): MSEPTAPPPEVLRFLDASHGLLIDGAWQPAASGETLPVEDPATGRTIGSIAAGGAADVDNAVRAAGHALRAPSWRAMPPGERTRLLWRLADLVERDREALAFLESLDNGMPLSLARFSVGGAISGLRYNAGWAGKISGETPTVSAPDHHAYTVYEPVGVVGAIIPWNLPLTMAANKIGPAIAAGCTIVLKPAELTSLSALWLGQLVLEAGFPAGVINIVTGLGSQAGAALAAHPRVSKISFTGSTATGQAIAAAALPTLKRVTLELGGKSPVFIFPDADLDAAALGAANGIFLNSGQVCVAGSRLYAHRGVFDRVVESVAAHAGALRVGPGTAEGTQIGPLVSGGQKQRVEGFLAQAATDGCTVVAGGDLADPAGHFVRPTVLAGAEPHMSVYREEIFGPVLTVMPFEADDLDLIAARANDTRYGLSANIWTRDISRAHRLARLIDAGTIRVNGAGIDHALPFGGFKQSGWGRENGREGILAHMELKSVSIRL
Nature of the assay: HPLC, E. coli cell extract. It counts as biochemical. The conditions noted are these: 100 μM substrate, 500 μM NAD+, 30 °C.

The target of a further assay is T2, SLG_11410 (Sphingobium sp. SYK-6, UniProt G2IPY8).
T2 construct: coding region in pET21a(+), extract of E. coli BL21(DE3)
T2 sequence (G2IPY8 1-498): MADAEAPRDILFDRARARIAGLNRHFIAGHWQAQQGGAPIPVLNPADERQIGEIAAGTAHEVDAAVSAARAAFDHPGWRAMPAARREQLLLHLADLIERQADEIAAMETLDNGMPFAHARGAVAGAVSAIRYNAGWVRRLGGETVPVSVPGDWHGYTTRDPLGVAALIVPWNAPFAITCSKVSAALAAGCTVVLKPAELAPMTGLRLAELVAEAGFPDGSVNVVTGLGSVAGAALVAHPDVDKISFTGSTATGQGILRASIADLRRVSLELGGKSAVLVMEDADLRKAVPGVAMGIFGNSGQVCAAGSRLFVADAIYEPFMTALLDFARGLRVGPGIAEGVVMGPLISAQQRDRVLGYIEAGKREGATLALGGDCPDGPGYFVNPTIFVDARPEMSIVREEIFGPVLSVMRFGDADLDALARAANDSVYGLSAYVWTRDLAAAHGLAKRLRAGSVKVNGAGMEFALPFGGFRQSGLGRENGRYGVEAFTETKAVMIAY
Nature of the assay: HPLC, E. coli cell extract. It counts as biochemical. Conditions: 100 μM substrate, 500 μM NAD+, 30 °C.

`COc1cc(C=O)cc(OC)c1O` [syringaldehyde]: the specific activity entry at SLG_38120 and on SLG_11410 was “All these aromatic ALDH gene products converted SN into syringate” each time.
